Where a name gives a salt, the structure may show the parent alone. Read-outs that look alike come from different tables or passages of the source. Marks after values point to notes of the source that are not given here.
Columns and labels:
[1] = molecular target: T1, human recombinant serotonin 5-HT2A receptor (Homo sapiens, UniProt P28223); experiment: Binding affinity for serotonin 5-HT2A receptor ([3H]Ketanserin)
T1 construct: purchased PerkinElmer Life and Analytical Sciences, USA; host or cells: CHO-K1 cells
Method: (§1) Receptor binding affinities of the compounds for serotonin receptors were measured by the method described in the literature (see [Park W K et al., Pharmacol Biochem Behav., 82(2), 361-372 (2005)].
For serotonin 5-HT2A binding, an aliquot of human recombinant serotonin 5-HT2A receptor (PerkinElmer Life and Analytical Sciences, USA) expressed in CHO-K1 cells (5 μg/well) and 1 nM [^3H]Ketanserin (PerkinElmer) were used in the presence of mianserin (20 μM) as a nonspecific. The reaction mixture was incubated for 60 min […] 50 mM Tris-HCl (pH 7.4) buffer containing 4 mM CaCl2 and 0.1% ascorbic acid, and harvested through filtermate A glass fiber filter (Wallac, Finland) presoaked in 0.5% polyethyleneimine (PEI) by microbeta filtermate-96 harvester (PerkinElmer) to terminate the reaction, and then washed with ice cold 50 mM Tris-HCl buffer solution (pH 7.4). The filter was then covered with MeltiLex, sealed in a sample bag, dried in an oven. The radioactivity retained in the filter was finally counted using MicroBeta Plus (Wallac).
(§2) The binding affinity (IC50) of a compound for the receptor was calculated by computerized nonlinear regression analysis (GraphPad Prism Program, San Diego, USA) using 7-8 varied concentrations of the compound run in duplicate tubes.

mice = experiment: Anti-depressants activity in forced swimming test; type: in vivo; details: 60 min before testing
Method: Each mouse was placed in a 25 cm glass cylinder (10 cm diameter) containing 15 cm of water maintained at 22±1, and was forced to swim for 10 min. 24 hours later, the mouse was replaced into the cylinder and the total duration of immobility was recorded during the last 5 min of the 6-min testing period. Mice are judged immobile when they float in an upright position and make only small movements to keep their head above water. Test drugs were suspended in 3% Tween 80 solution, and administered orally (po) 60 min before the testing.

[2] = molecular target: T2, human serotonin transporter (Homo sapiens, UniProt P31645); experiment: Binding affinity for serotonin transporter ([3H]Imipramine)
T2 construct: purchased PerkinElmer; host or cells: HEK-293 cells
Method: For serotonin transporter binding assays, a reaction mixture with a final volume of 0.25 ml was prepared by mixing a test compound, human serotonin transporter membrane expressed in HEK-293 cells (PerkinElmer, 5 μg/well), [^3H] Imipramine (PerkinElmer, 2 nM) and 50 mM Tris-HCl (pH 7.4) buffer containing 120 mM NaCl and 5 mM KCl. The reaction mixture was incubated for 30 min at 27, and harvested through filtermate A glass fiber filter presoaked in 0.5% PEI with ice cold 50 mM Tris-HCl buffer (pH 7.4) containing 0.9% NaCl.

[3] = molecular target: T3, human recombinant 5-HT2C receptor (Homo sapiens, UniProt P28335); experiment: Binding affinity for serotonin 5-HT2C receptor ([3H]Mesulergine)
T3 construct: purchased PerkinElmer
T3 sequence (P28335 33-458): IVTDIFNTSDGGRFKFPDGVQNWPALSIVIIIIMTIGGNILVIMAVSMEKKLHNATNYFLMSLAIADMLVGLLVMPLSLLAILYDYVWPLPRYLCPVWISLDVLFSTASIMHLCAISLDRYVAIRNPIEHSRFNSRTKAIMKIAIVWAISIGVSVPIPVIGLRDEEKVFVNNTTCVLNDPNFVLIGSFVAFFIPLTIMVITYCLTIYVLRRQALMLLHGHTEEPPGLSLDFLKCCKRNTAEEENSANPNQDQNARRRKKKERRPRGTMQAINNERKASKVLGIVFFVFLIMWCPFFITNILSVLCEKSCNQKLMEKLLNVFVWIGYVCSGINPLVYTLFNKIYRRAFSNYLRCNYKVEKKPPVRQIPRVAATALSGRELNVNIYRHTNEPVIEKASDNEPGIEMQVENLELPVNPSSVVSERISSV
Method: as §1, §2
For serotonin 5-HT2C binding, frozen membranes from stable CHO-K1 cell line expressing the human recombinant 5-HT2C receptor (PerkinElmer, 4 μg/well), [^3H]Mesulergine (Amersham, 1.3 nM) and test compounds were added into 50 mM Tris-HCl (pH 7.4) buffer containing 0.1% ascorbic acid and 4 mM CaCl2. Nonspecific binding was determined using 100 μM mianserin. The incubations were performed for 60 min at 27, and these were terminated by rapid filtration through filtermate A glass fiber filter presoaked in 0.5% PEI.

[4] = CHO-K1 cells, 1 nM [3H]Ketanserin, read-out: binding affinity (IC50) 5-HT2A
[5] = HEK-293 membrane, 2 nM [3H]Imipramine, read-out: binding affinity Serotonin Transporter
[6] = CHO-K1 membranes, 1.3 nM [3H]Mesulergine, read-out: binding affinity (IC50) 5-HT2C

T2 sequence (P31645 whole entry): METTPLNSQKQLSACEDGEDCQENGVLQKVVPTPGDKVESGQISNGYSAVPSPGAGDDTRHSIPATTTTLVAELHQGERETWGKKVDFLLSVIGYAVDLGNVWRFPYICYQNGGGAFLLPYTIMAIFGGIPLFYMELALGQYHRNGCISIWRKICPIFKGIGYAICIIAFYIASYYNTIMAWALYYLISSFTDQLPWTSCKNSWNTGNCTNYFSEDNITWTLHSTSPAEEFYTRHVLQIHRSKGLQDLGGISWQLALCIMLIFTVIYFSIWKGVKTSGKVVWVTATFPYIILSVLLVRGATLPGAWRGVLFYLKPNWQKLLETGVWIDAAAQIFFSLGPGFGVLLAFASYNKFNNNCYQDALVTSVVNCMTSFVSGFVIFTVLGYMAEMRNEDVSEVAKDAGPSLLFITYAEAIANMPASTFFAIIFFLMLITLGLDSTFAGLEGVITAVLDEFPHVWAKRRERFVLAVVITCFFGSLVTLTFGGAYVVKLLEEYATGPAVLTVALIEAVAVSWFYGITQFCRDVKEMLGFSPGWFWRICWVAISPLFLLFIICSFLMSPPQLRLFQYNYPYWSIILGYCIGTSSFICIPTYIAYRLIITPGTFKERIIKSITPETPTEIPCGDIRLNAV
T1 sequence (P28223 whole entry): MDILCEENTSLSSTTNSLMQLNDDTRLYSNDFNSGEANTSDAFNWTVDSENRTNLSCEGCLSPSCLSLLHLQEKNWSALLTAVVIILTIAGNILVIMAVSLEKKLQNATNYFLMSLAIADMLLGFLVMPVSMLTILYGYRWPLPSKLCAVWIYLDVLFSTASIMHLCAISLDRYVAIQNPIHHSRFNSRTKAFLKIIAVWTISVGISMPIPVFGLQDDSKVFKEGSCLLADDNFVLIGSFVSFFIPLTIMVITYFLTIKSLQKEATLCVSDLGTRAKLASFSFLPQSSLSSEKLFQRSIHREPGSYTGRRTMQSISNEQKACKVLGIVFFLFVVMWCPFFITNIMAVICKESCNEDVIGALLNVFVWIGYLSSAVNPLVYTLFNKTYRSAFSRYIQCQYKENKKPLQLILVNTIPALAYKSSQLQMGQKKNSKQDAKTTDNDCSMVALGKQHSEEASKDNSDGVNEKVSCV

SMILES | IC50 [1] | Immobility in forced swimming test (mice; 50 mg/kg po) | IC50 [2] | IC50 [3] | IC50 [1, 4] | Immobility in forced swimming test (mice; 25 mg/kg po) | IC50 [2, 5] | IC50 [3, 6] | Immobility in forced swimming test (mice; 100 mg/kg po)
Clc1cccc(N2CCN(CCCNc3ncnc4c3nc(-c3ccccc3)n4-c3ccccc3)CC2)c1Cl [Example 1, N-(3-(4-(2,3-dichlorophenyl)piperazin-1-yl)propyl)-8,9-diphenyl-9H-purine-6-amine] | 14 nM | 41.79% | 64 nM | 86 nM | – | – | – | – | –
Cc1cccc(N2CCN(CCCNc3ncnc4c3nc(-c3ccccc3)n4-c3ccccc3)CC2)c1C [Example 2, N-(3-(4-(2,3-dimethylphenyl)piperazin-1-yl)propyl)-8,9-diphenyl-9H-purine-6-amine] | – | 47.13 ± 10.41% | – | – | 32 nM | 58.34 ± 11.05% | 75 nM | 163 nM | –
CCc1nc2c(NCCN3CCN(c4cccc(C)c4C)CC3)ncnc2n1-c1ccccc1 [Example 10, N-(2-(4-(2,3-dimethylphenyl)piperazin-1-yl)ethyl)-8-ethyl-9-phenyl-9H-purine-6-amine] | – | 80.58 ± 11.21% | – | – | 11 nM | 74.56 ± 14.08% | 161 nM | 106 nM | –
CCCc1nc2c(NCCN3CCN(c4cccc(C)c4C)CC3)ncnc2n1-c1ccccc1 [Example 12, N-(2-(4-(2,3-dimethylphenyl)piperazin-1-yl)ethyl)-9-phenyl-8-propyl-9H-purine-6-amine] | – | – | – | – | 13 nM | 94.69 ± 12.46% | 93 nM | 147 nM | –
Cc1cccc(N2CCN(CCCNc3ncnc4c3ncn4-c3ccccc3)CC2)c1C [Example 13, N-(3-(4-(2,3-dimethylphenyl)piperazin-1-yl)propyl)-9-phenyl-9H-purine-6-amine] | – | – | – | – | 56 nM | 89.81 ± 7.14% | 35 nM | 294 nM | –
Cc1cccc(N2CCN(CCNc3ncnc4c3nc(-c3ccccc3)n4-c3ccccc3)CC2)c1C [Example 18, N-(2-(4-(2,3-dimethylphenyl)piperazin-1-yl)ethyl)-8,9-diphenyl-9H-purine-6-amine] | – | – | – | – | 28 nM | 89.98 ± 11.45% | 575 nM | 216 nM | –
Cc1cccc(N2CCN(CCCNc3ncnc4c3nc(-c3ccccc3)n4C)CC2)c1C [Example 23, N-(3-(4-(2,3-dimethylphenyl)piperazin-1-yl)propyl)-9-methyl-8-phenyl-9H-purine-6-amine] | – | – | – | – | 36 nM | 99.59 ± 6.34% | 106 nM | 76 nM | –
Cc1cccc(N2CCN(CCCNc3ncnc4c3nc(C)n4C)CC2)c1C [Example 28, N-(3-(4-(2,3-dimethylphenyl)piperazin-1-yl)propyl)-8,9-dimethyl-9H-purine-6-amine] | – | – | – | – | 65 nM | 87.65 ± 7.08% | 85 nM | 430 nM | –
Cc1cccc(N2CCN(CCCNc3ncnc4c3ncn4-c3ccc4c(c3)OCO4)CC2)c1C [Example 34, 9-(benzo[d][1,3]dioxol-5-yl)-N-(3-(4-(2,3-dimethylphenyl)piperazin-1-yl)propyl)-9H-purine-6-amine] | – | 96.83 ± 11.02% | – | – | 54 nM | 76.92 ± 10.04% | 6 nM | 230 nM | –
Cc1cccc(N2CCN(CC(O)CNc3ncnc4c3nc(C)n4-c3ccc4c(c3)OCO4)CC2)c1C (centres unmarked) [Example 35, 1-(9-(benzo[d][1,3]dioxol-5-yl)-8-methyl-9H-purin-6-ylamino)-3-(4-(2,3-dimethylphenyl)piperazin-1-yl)propan-2-ol] | – | – | – | – | 106 nM | 87.36 ± 6.89% | 27 nM | 789 nM | –
Cc1cccc(N2CCN(CCCNc3ncnc4c3nc(C)n4-c3ccc4c(c3)OCO4)CC2)c1C [Example 36, 9-(benzo[d][1,3]dioxol-5-yl)-N-(3-(4-(2,3-dimethylphenyl)piperazin-1-yl)propyl)-8-methyl-9H-purine-6-amine] | – | 86.77 ± 11.28% | – | – | 29 nM | 79.93 ± 13.23% | 4 nM | 285 nM | –
Cc1cccc(N2CCN(CC(O)CNc3ncnc4c3nc(C(C)(C)C)n4C)CC2)c1C (centres unmarked) [Example 38, 1-(8-tert-butyl-9-methyl-9H-purin-6-ylamino)-3-(4-(2,3-dimethylphenyl)piperazin-1-yl)propan-2-ol] | – | 64.14 ± 10.74% | – | – | 404 nM | 74.86 ± 9.75% | 19 nM | 1590 nM | –
CCc1nc2c(NCCCN3CCN(c4cccc(C)c4C)CC3)ncnc2n1-c1ccc2c(c1)OCO2 [Example 39, 9-(benzo[d][1,3]dioxol-5-yl)-N-(3-(4-(2,3-dimethylphenyl)piperazin-1-yl)propyl)-8-ethyl-9H-purine-6-amine] | – | – | – | – | 33 nM | 88.94 ± 5.41% | 21 nM | 328 nM | –
CCc1nc2c(NCC(O)CN3CCN(c4cccc(C)c4C)CC3)ncnc2n1-c1ccc2c(c1)OCO2 (centres unmarked) [Example 40, 1-(9-(benzo[d][1,3]dioxol-5-yl)-8-ethyl-9H-purin-6-ylamino)-3-(4-(2,3-dimethylphenyl)piperazin-1-yl)propan-2-ol] | – | – | – | – | 125 nM | 98.20 ± 10.00% | 18 nM | 713 nM | –
Cc1cccc(N2CCN(CCCNc3ncnc4c3ncn4-c3ccc4c(c3)OCCO4)CC2)c1C [Example 41, 9-(2,3-dihydrobenzo[b][1,4]dioxin-6-yl)-N-(3-(4-(2,3-dimethylphenyl)piperazin-1-yl)propyl)-9H-purine-6-amine] | – | – | – | – | 16 nM | 105.95 ± 4.92% | 7 nM | 224 nM | –
Cc1cccc(N2CCN(CC(O)CNc3ncnc4c3ncn4-c3ccc4c(c3)OCCO4)CC2)c1C (centres unmarked) [Example 42, 1-(9-(2,3-dihydrobenzo[b][1,4]dioxin-6-yl)-9H-purin-6-ylamino)-3-(4-(2,3-dimethylphenyl)piperazin-1-yl)propan-2-ol] | – | – | – | – | 40 nM | 86.65 ± 6.40% | 8 nM | 560 nM | –
Cc1c(Cl)cccc1N1CCN(CCCNc2ncnc3c2nc(-c2ccccc2)n3-c2ccccc2)CC1 [Example 67, N-(3-(4-(3-chloro-2-methylphenyl)piperazin-1-yl)propyl)-8,9-diphenyl-9H-purine-6-amine] | – | – | – | – | 42 nM | – | 96 nM | 247 nM | –
Cc1cccc(N2CCN(CCCNc3ncnc4c3nc(-c3ccccc3)n4-c3ccc(F)cc3)CC2)c1C [Example 79, N-(3-(4-(2,3-dimethylphenyl)piperazin-1-yl)propyl)-9-(4-fluorophenyl)-8-phenyl-9H-purine-6-amine] | – | – | – | – | 43 nM | – | 67 nM | 303 nM | –
CSc1ccc(-n2c(C)nc3c(NCCN4CCN(c5cccc(C)c5C)CC4)ncnc32)cc1 [Example 85, N-(2-(4-(2,3-dimethylphenyl)piperazin-1-yl)ethyl)-8-methyl-9-(4-(methylthio)phenyl)-9H-purine-6-amine hydrochloride] | – | – | – | – | 9.6 nM | – | 362 nM | 70 nM | –
CNCCC(Oc1ccc(C(F)(F)F)cc1)c1ccccc1 (centres unmarked) [Fluoxetine, reference compound] | – | 70.4^b % | – | – | – | – | – | – | 59.5^b %

— patent publication US8785453B2, “Arylpiperazine-containing purine derivatives and uses thereof” (Green Cross Corporation, priority 2009, dated 2014)
